Measurements reported in BindingDB's records for doi:10.1021/jm0613121 (Bar-Ilan University, 2007).

target: T1, Gag-Pol polyprotein [600-1029,C879S]/[600-1159,C879S] (Human immunodeficiency virus 1, UniProt P03366, C879S); test: HIV-1 RT Assay; settings: not given
T1 construct: 600-1029; 600-1159

How did the IC50 turn out when `NC(=O)c1scnc1-c1cccc(I)c1` [4-(3-Iodophenyl)thiazole-5-carboxamide] was run?
Its IC50 is over 312 µM.

How did the IC50 turn out when `NC(=O)c1[nH]cnc1-c1cccc(-c2ccccc2)c1` [4-(3-Phenylphenyl)-1H-imidazole-5-carboxamide] was run?
The IC50 was over 312 µM.

Which IC50 does the source give for `NC(=O)c1scnc1-c1cccc(-c2ccccc2)c1` [4-(3-phenylphenyl)-1,3-thiazole-5-carboxamide] here?
The IC50 was over 312 µM.

same assay, conditions: pH 7.5; 37 °C

`NC(=O)CC(=O)c1cccc(C(=O)c2ccccc2)c1` [3-(3-Benzoylphenyl)-3-oxopropanamide] was tested. Which IC50 did it give?
The IC50 was over 312 µM.

How did the IC50 turn out when `N#CCC(=O)c1ccc(Cl)c(Br)c1` [3-(3-Bromo-4-chlorophenyl)-3-oxopropanenitrile] was run?
Its IC50 is over 312 µM.

How did the IC50 turn out when `NC(=O)CC(=O)c1cccc(Cl)c1` [3-(3-Chlorophenyl)-3-oxopropanamide] was run?
Its IC50 is over 312 µM.

`N#CCC(=O)c1cccc(I)c1` [3-(3-Iodophenyl)-3-oxopropanenitrile] was tested. Which IC50 did it give?
The IC50 was over 312 µM.

`NC(=O)CC(=O)c1cccc(-c2ccccc2)c1` [3-Oxo-3-(3-phenylphenyl)propanamide] was tested. Which IC50 did it give?
The IC50 was over 312 µM.

How did the IC50 turn out when `NC(=O)c1[nH]cnc1-c1cccc(C(=O)c2ccccc2)c1` [4-(3-Benzoylphenyl)-1H-imidazole-5-carboxamide] was run?
The IC50 was over 312 µM.
